From US4457928A, “Cephem compounds” (Fujisawa Pharmaceutical Co., Ltd., priority 1980, dated 1984)
Values after ≈ are worked out from the molar mass of the structure shown.

Tests used:
Experiment in all cases: minimal inhibitory concentration (MIC), agar streak test
Type in all cases: cell-based
B. subtilis ATCC 6633 = conditions: Bacillus subtilis, ATCC6633, heart infusion agar, 37° C., 20 hours, 10^8 viable cells per ml
Description: (§1) One loopful of an overnight culture of each test strain in Trypticase-soy broth (10^8 viable cells per ml.) was streaked on heart infusion agar (HI-agar) containing graded concentrations of antibiotics, and the minimal inhibitory concentration (MIC) was expressed in terms of μg/ml after incubation at 37° C. for 20 hours.

Ps. aeruginosa 2 = conditions: Pseudomonas aeruginosa, heart infusion agar, 37° C., 20 hours, 10^8 viable cells per ml
Description: as §1

S. marcescens 35 = conditions: Serratia marcescens, heart infusion agar, 37° C., 20 hours, 10^8 viable cells per ml
Description: as §1

Compound	MIC (B. subtilis ATCC 6633) [µg/mL]	MIC (Ps. aeruginosa 2) [µg/mL]	MIC (S. marcescens 35) [µg/mL]
CCO/N=C(\C(=O)NC1C(=O)N2C(C(=O)[O-])=C(C[n+]3cccc(CO)c3)CSC12)c1nsc(N)n1 (stereo not drawn) [(1)]	0.78 (≈ 1.5 µM)	6.25 (≈ 12 µM)	3.13 (≈ 6.02 µM)
CCO/N=C(\C(=O)NC1C(=O)N2C(C(=O)[O-])=C(C[n+]3ccc(CO)cc3)CSC12)c1nsc(N)n1 (stereo not drawn) [(2)]	0.78 (≈ 1.5 µM)	12.5 (≈ 24.1 µM)	1.56 (≈ 3 µM)
CCO/N=C(\C(=O)NC1C(=O)N2C(C(=O)[O-])=C(C[n+]3cccc(Cl)c3)CSC12)c1nsc(N)n1 (stereo not drawn) [(3)]	0.78 (≈ 1.49 µM)	6.25 (≈ 11.9 µM)	3.13 (≈ 5.97 µM)
CCO/N=C(\C(=O)NC1C(=O)N2C(C(=O)[O-])=C(C[n+]3cc(C)cc(C)c3)CSC12)c1nsc(N)n1 (stereo not drawn) [(4)]	1.56 (≈ 3.01 µM)	6.25 (≈ 12.1 µM)	3.13 (≈ 6.05 µM)
CCO/N=C(\C(=O)NC1C(=O)N2C(C(=O)[O-])=C(C[n+]3ccc(CCCO)cc3)CSC12)c1nsc(N)n1 (stereo not drawn) [(5)]	0.78 (≈ 1.42 µM)	12.5 (≈ 22.8 µM)	1.56 (≈ 2.85 µM)
